Values quoted from earlier work in patent US20200254013A1, “COMPOSITIONS COMPRISING ALPHA-POLYGLUTAMIC ACID-ZINC FOR TREATING CANCER” (XYLONIX IP HOLDINGS PTE. LTD., priority 2017, published 2020).

Experiments:
[1] = tested on: folate receptor (FR), FR-α and FR-β
[2] = dietary administration 240 ppm, after 9-14 days
[3] = tested on: LNCaP, PC3, DU145 prostate cancer cell lines; settings: 1-10 μM
[4] = tested on: murine thymocytes, murine splenic lymphocytes, human Ramos B, and human Jurkat T cells; settings: nanomolar concentrations

| affinity for FR-α versus FR-β [1] | Compound | neurological toxicity in rats [2] | ATP-depletion and necrosis in prostate cancer cell lines [3] | apoptosis in leukocyte-originating cells [4] |
| --- | --- | --- | --- | --- |
| higher affinity for FR-α over FR-β | CN(CC1CNc2nc(N)[nH]c(=O)c2N1C)c1ccc(C(=O)N[C@@H](CCC(=O)O)C(=O)O)cc1 (stereo partly shown) [DMTHF, N^5, N^10-dimethyl tetrahydrofolate] | – | – | – |
| – | zinc pyrithione | acute neurological toxicity | elicited ATP-depletion and, eventually, ERK and PKC-dependent necrosis | induced zinc-specific apoptosis |
